Experimental data as given in ChEMBL document CHEMBL5042509, “Benzophenone Glucosides and B-Type Proanthocyanidin Dimers from Zambian Cassia abbreviata and Their Trypanocidal Activities” (J Nat Prod, 2022).
≈ marks a conversion by molar mass, not a printed value.

Tests used:
[1] = test system: Trypanosoma brucei brucei; assay: Trypanocidal activity against Trypanosoma brucei brucei GUTat3.1 assessed as parasite growth inhibition at 50 ug/ml incubated for 3 days by Celltiter-Glo luminescence assay; type: functional; parameters: scale not given: the % may be the effect or the level left; conditions: dose 50 µg/ml; time 3 day
[2] = test system: Trypanosoma brucei rhodesiense; assay: Trypanocidal activity against Trypanosoma brucei rhodesiense IL1501 assessed as parasite growth inhibition at 50 ug/ml incubated for 3 days by Celltiter-Glo luminescence assay; type: functional; parameters: scale not given: the % may be the effect or the level left; conditions: dose 50 µg/ml; time 3 day
Trypanosoma evansi [3] = assay: Trypanocidal activity against Trypanosoma evansi assessed as parasite growth inhibition incubated for 3 days by Celltiter-Glo luminescence assay; type: functional, organism-based; conditions: 72 h
[4] = test system: Trypanosoma brucei rhodesiense; assay: Trypanocidal activity against Trypanosoma brucei rhodesiense assessed as parasite growth inhibition incubated for 3 days by Celltiter-Glo luminescence assay; type: functional, organism-based; conditions: 72 h
Trypanosoma evansi [5] = assay: Trypanocidal activity against Trypanosoma evansi assessed as parasite growth inhibition at 50 ug/ml incubated for 3 days by Celltiter-Glo luminescence assay; type: functional; parameters: scale not given: the % may be the effect or the level left; conditions: dose 50 µg/ml; time 3 day
Trypanosoma congolense [6] = assay: Trypanocidal activity against Trypanosoma congolense IL3000 assessed as parasite growth inhibition at 50 ug/ml incubated for 3 days by Celltiter-Glo luminescence assay; parameters: scale not given: the % may be the effect or the level left; conditions: dose 50 µg/ml; time 3 day
[7] = test system: Trypanosoma brucei gambiense; assay: Trypanocidal activity against Trypanosoma brucei gambiense IL1922 assessed as parasite growth inhibition at 50 ug/ml incubated for 3 days by Celltiter-Glo luminescence assay; type: functional; parameters: scale not given: the % may be the effect or the level left; conditions: dose 50 µg/ml; time 3 day
[8] = test system: Trypanosoma brucei rhodesiense; assay: Trypanocidal activity against Trypanosoma brucei rhodesiense assessed as parasite growth inhibition at 50 ug/ml incubated for 3 days by Celltiter-Glo luminescence assay; type: functional; parameters: scale not given: the % may be the effect or the level left; conditions: dose 50 µg/ml; time 3 day
Trypanosoma congolense [9] = assay: Trypanocidal activity against Trypanosoma congolense IL3000 assessed as parasite growth inhibition incubated for 3 days by Celltiter-Glo luminescence assay; conditions: IL3000, 72 h
[10] = test system: Trypanosoma brucei brucei; assay: Trypanocidal activity against Trypanosoma brucei brucei GUTat3.1 assessed as parasite growth inhibition incubated for 3 days by Celltiter-Glo luminescence assay; type: functional, organism-based; conditions: GUTat3.1, 72 h
[11] = test system: Trypanosoma brucei rhodesiense; assay: Trypanocidal activity against Trypanosoma brucei rhodesiense IL1501 assessed as parasite growth inhibition incubated for 3 days by Celltiter-Glo luminescence assay; type: functional, organism-based; conditions: IL1501, 72 h
[12] = test system: Trypanosoma brucei gambiense; assay: Trypanocidal activity against Trypanosoma brucei gambiense IL1922 assessed as parasite growth inhibition incubated for 3 days by Celltiter-Glo luminescence assay; type: functional, organism-based; conditions: IL1922, 72 h

| Compound | Activity [1] | Activity [2] | IC50 (Trypanosoma evansi [3]) | IC50 [4] | Activity (Trypanosoma evansi [5]) | Activity (Trypanosoma congolense [6]) | Activity [7] | Activity [8] | IC50 (Trypanosoma congolense [9]) | IC50 [10] | IC50 [11] | IC50 [12] |
| --- | --- | --- | --- | --- | --- | --- | --- | --- | --- | --- | --- | --- |
| Oc1ccc([C@H]2Oc3cc(O)ccc3[C@H](c3c(O)cc(O)c4c3O[C@H](c3cc(O)c(O)c(O)c3)[C@H](O)C4)[C@@H]2O)cc1 | 0% | 13.65% | 23.2 µg/mL (≈ 41.2 µM) | 3.91 µg/mL (≈ 6.95 µM) | 99.69% | 99.67% | 26.1% | 99.9% | 15.3 µg/mL (≈ 27.3 µM) |  |  |  |
| Oc1cc(O)c2c(c1)O[C@H](c1ccc(O)c(O)c1)[C@H](O)C2 [(-)-EPICATECHIN] | 29.77% | 8.81% |  |  | 54.44% | 13.33% | 11.49% | 74.01% |  |  |  |  |
| COc1cc(O[C@@H]2O[C@H](CO)[C@@H](O)[C@H](O)[C@H]2O[C@@H]2O[C@@H](C)[C@H](O)[C@@H](O)[C@H]2O)cc(OC)c1OC | 0.72% | 2.26% |  |  | 0% | 0% | 0.1% | 5.42% |  |  |  |  |
| Oc1ccc([C@H]2Oc3cc(O)ccc3[C@H](c3c(O)cc(O)c4c3O[C@H](c3ccc(O)c(O)c3)[C@H](O)C4)[C@@H]2O)cc1 | 13.03% | 1.57% |  |  | 0% | 35.26% | 10.01% | 59.53% |  |  |  |  |
| Oc1ccc([C@H]2Oc3cc(O)ccc3[C@@H](c3c(O)cc(O)c4c3O[C@H](c3cc(O)c(O)c(O)c3)[C@@H](O)C4)[C@@H]2O)cc1 | 35.39% | 20.49% | 14.9 µg/mL (≈ 26.5 µM) | 4.02 µg/mL (≈ 7.15 µM) | 99.77% | 99.74% | 26.67% | 99.92% | 7.53 µg/mL (≈ 13.4 µM) |  |  |  |
| Oc1ccc2c(c1)O[C@H](c1ccc(O)c(O)c1)[C@@H](O)[C@H]2c1c(O)cc(O)c2c1O[C@H](c1cc(O)c(O)c(O)c1)[C@H](O)C2 | 26.31% | 42.7% | 6.52 µg/mL (≈ 11.3 µM) | 6.79 µg/mL (≈ 11.7 µM) | 100.12% | 99.96% | 73.09% | 100.02% | 9.26 µg/mL (≈ 16 µM) |  |  |  |
| Cc1ccc(C(=O)Nc2ccc(S(=O)(=O)O)c3cc(S(=O)(=O)O)cc(S(=O)(=O)O)c23)cc1NC(=O)c1cccc(NC(=O)Nc2cccc(C(=O)Nc3cc(C(=O)Nc4ccc(S(=O)(=O)O)c5cc(S(=O)(=O)O)cc(S(=O)(=O)O)c45)ccc3C)c2)c1 [SURAMIN] |  |  | 0.54 µg/mL (≈ 0.416 µM) | 0.094 µg/mL (≈ 0.0725 µM) |  |  |  |  | 10.2 µg/mL (≈ 7.9 µM) | 0.094 µg/mL (≈ 0.0725 µM) | 0.11 µg/mL (≈ 0.0848 µM) | 0.092 µg/mL (≈ 0.0709 µM) |
| Oc1ccc([C@H]2Oc3c(c(O)cc(O)c3[C@@H]3c4ccc(O)cc4O[C@H](c4ccc(O)c(O)c4)[C@H]3O)C[C@H]2O)cc1 | 16.43% | 9.66% |  |  | 0% | 33.1% | 10.09% | 90.49% |  |  |  |  |
| COc1ccc(O[C@@H]2O[C@H](CO)[C@@H](O)[C@H](O)[C@H]2O)cc1OC | 0% | 0% |  |  | 0% | 0% | 0% | 8.9% |  |  |  |  |
| COc1ccc(O[C@@H]2O[C@H](CO)[C@@H](O)[C@H](O)[C@H]2O[C@@H]2OC[C@](O)(CO)[C@H]2O)cc1OC | 0% | 0% |  |  | 0.6% | 0% | 0% | 2.69% |  |  |  |  |
| COc1cc(O[C@@H]2O[C@H](CO)[C@@H](O)[C@H](O)[C@H]2O[C@@H]2O[C@@H](C)[C@H](OC(C)=O)[C@@H](OC(C)=O)[C@H]2OC(C)=O)cc(OC)c1OC | 44.45% | 27.17% |  | 33.3 µg/mL (≈ 53.8 µM) | 0% | 91.43% | 38.79% | 89.65% | 40.9 µg/mL (≈ 66.1 µM) |  |  |  |
| COc1cc(O)cc(OC)c1OC [ANTIAROL] | 32.18% | 20.12% |  | 24.9 µg/mL (≈ 135 µM) | 0% | 1.68% | 43.51% | 94.68% |  |  |  |  |
| N=C(N)c1ccc(/N=N/Nc2ccc(C(=N)N)cc2)cc1 [DIMINAZENE] |  |  | 0.0033 µg/mL (≈ 0.0117 µM) | 0.081 µg/mL (≈ 0.288 µM) |  |  |  |  | 0.065 µg/mL (≈ 0.231 µM) | 0.02 µg/mL (≈ 0.0711 µM) | 0.013 µg/mL (≈ 0.0462 µM) | 0.0066 µg/mL (≈ 0.0235 µM) |
| Oc1ccc2c(c1)O[C@H](c1ccc(O)c(O)c1)[C@@H](O)[C@@H]2c1c(O)cc(O)c2c1O[C@H](c1ccc(O)c(O)c1)[C@@H](O)C2 | 20.31% | 2.52% |  |  | 32.9% | 36.23% | 4.59% | 99.6% |  |  |  |  |
